In PubChem BioAssay AID248 (DTP/NCI, 2004):
Where “and” joins values, the source holds several entries; their conditions need not be identical. Equal entries are not always repeated. Toxic doses and inconclusive results are not listed. Cut-off read from the data, not from the text of the source: active = T/C of 150% or more; inactive = T/C below 125%.

Tested on: L1210 leukemia ip in BDF1 mice, survival T/C
Test: NCI In Vivo Anticancer Drug Screen. Data for tumor model L1210 Leukemia (intraperitoneal) in B6D2F1 (BDF1) mice
Details: endpoint: mean survival time, higher = longer survival
How it was run: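 Value reflects the ratio of survival in compound-treated mice to survival in vehicle-treated controls, with both groups carrying the same transplanted tumor.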

[1] = dose: 75.0 mg/kg/injection, schedule: Q01DX001 (ip), vehicle: saline
[2] = dose: 150.0 mg/kg/injection, schedule: Q01DX001 (ip), vehicle: saline
[3] = dose: 300.0 mg/kg/injection, schedule: Q01DX001 (ip), vehicle: saline
[4] = dose: 100.0 mg/kg/injection, schedule: Q04DX003 (ip), vehicle: saline with Tween-80
[5] = dose: 100.0 mg/kg/injection, schedule: Q04DX003 (ip), vehicle: saline
[6] = dose: 200.0 mg/kg/injection, schedule: Q04DX003 (ip), vehicle: saline with Tween-80
[7] = dose: 200.0 mg/kg/injection, schedule: Q04DX003 (ip), vehicle: saline
[8] = dose: 400.0 mg/kg/injection, schedule: Q04DX003 (ip), vehicle: saline with Tween-80
[9] = dose: 400.0 mg/kg/injection, schedule: Q04DX003 (ip), vehicle: saline
[10] = dose: 100.0 mg/kg/injection, schedule: Q01DX001 (ip), vehicle: saline
[11] = dose: 200.0 mg/kg/injection, schedule: Q01DX001 (ip), vehicle: saline
[12] = dose: 400.0 mg/kg/injection, schedule: Q01DX001 (ip), vehicle: saline
[13] = dose: 100.0 mg/kg/injection, schedule: Q01DX009 (ip), vehicle: saline with Tween-80
[14] = dose: 200.0 mg/kg/injection, schedule: Q01DX009 (ip), vehicle: saline with Tween-80
[15] = dose: 400.0 mg/kg/injection, schedule: Q01DX009 (ip), vehicle: saline with Tween-80
[16] = dose: 12.5 mg/kg/injection, schedule: Q04DX002 (ip), vehicle: saline with Tween-80
[17] = dose: 25.0 mg/kg/injection, schedule: Q04DX002 (ip), vehicle: saline with Tween-80
[18] = dose: 100.0 mg/kg/injection, schedule: Q01DX001 (ip), vehicle: Klucel (hydroxypropylcellulose) (HPC)
[19] = dose: 200.0 mg/kg/injection, schedule: Q01DX001 (ip), vehicle: Klucel (hydroxypropylcellulose) (HPC)
[20] = dose: 400.0 mg/kg/injection, schedule: Q01DX001 (ip), vehicle: Klucel (hydroxypropylcellulose) (HPC)

Measured: T/C

CCC[Si](Cl)(CCC)CCC
inactive: dose: 18.75 mg/kg/injection, schedule: Q01DX009 (ip), vehicle: acetone 98 % of control | dose: 37.5 mg/kg/injection, schedule: Q01DX009 (ip), vehicle: acetone 94 % of control | dose: 37.5 mg/kg/injection, schedule: Q04DX003 (ip), vehicle: acetone 99 % of control | dose: 75.0 mg/kg/injection, schedule: Q01DX001 (ip), vehicle: acetone 93 % of control | dose: 75.0 mg/kg/injection, schedule: Q01DX009 (ip), vehicle: acetone 96 % of control | dose: 75.0 mg/kg/injection, schedule: Q04DX003 (ip), vehicle: acetone 94 % of control | dose: 150.0 mg/kg/injection, schedule: Q01DX001 (ip), vehicle: acetone 101 % of control | dose: 150.0 mg/kg/injection, schedule: Q04DX003 (ip), vehicle: acetone 100 % of control | dose: 300.0 mg/kg/injection, schedule: Q01DX001 (ip), vehicle: acetone 86 % of control

CC[N+]1(C)CCOCC1
inactive: [1] 96 % of control and 94 % of control and 107 % of control | [2] 94 % of control and 100 % of control and 98 % of control | [3] 96 % of control and 98 % of control

Cc1cc([N+](=O)[O-])ccc1NC(=O)c1c(Cl)c(Cl)c(C(=O)Nc2ccc([N+](=O)[O-])cc2C)c(Cl)c1Cl
inactive: dose: 100.0 mg/kg/injection, schedule: Q01DX009 (ip), vehicle: Klucel (hydroxypropylcellulose) (HPC) 101 % of control | dose: 200.0 mg/kg/injection, schedule: Q01DX009 (ip), vehicle: Klucel (hydroxypropylcellulose) (HPC) 94 % of control | dose: 400.0 mg/kg/injection, schedule: Q01DX009 (ip), vehicle: Klucel (hydroxypropylcellulose) (HPC) 103 % of control

N#CCCSCCC#N
inactive: dose: 7.5 mg/kg/injection, schedule: Q01DX009 (ip), vehicle: saline 101 % of control | [4] 105 % of control | [5] 115 % of control | dose: 150.0 mg/kg/injection, schedule: Q01DX009 (ip), vehicle: saline 93 % of control | [6] 100 % of control | [7] 101 % of control | dose: 300.0 mg/kg/injection, schedule: Q01DX009 (ip), vehicle: saline 98 % of control | [8] 108 % of control | [9] 100 % of control

COc1cc([N+](=O)[O-])c2nc(C(Br)(Br)Br)ccc2c1[N+](=O)[O-]
inactive: dose: 50.0 mg/kg/injection, schedule: Q01DX001 (ip), vehicle: carboxymethylcellulose (CMC) 105 % of control | dose: 100.0 mg/kg/injection, schedule: Q01DX001 (ip), vehicle: carboxymethylcellulose (CMC) 111 % of control | dose: 200.0 mg/kg/injection, schedule: Q01DX001 (ip), vehicle: carboxymethylcellulose (CMC) 96 % of control | dose: 400.0 mg/kg/injection, schedule: Q01DX001 (ip), vehicle: carboxymethylcellulose (CMC) 103 % of control

N/C=C(/NC(=O)c1ccccc1C(N)=O)C(=O)O
inactive: [1] 100 % of control | [2] 100 % of control | [3] 91 % of control

CC(C)C1(c2ccsc2)NC(=O)NC1=O (stereo not given)
inactive: [10] 94 % of control | [11] 100 % of control | [12] 91 % of control

C=C(Br)CNC(=O)OCC
inactive: dose: 50.0 mg/kg/injection, schedule: Q04DX003 (ip), vehicle: saline 96 % of control | [5] 115 % of control | [7] 107 % of control

CC(C(N)=O)N1C(=O)C2C3CCC(O3)C2C1=O (stereo not given)
inactive: [5] 97 % of control | [7] 97 % of control | [9] 97 % of control

COc1ccc(CCNC(=O)Cc2ccccc2)cc1OC
inactive: dose: 50.0 mg/kg/injection, schedule: Q01DX009 (ip), vehicle: saline with Tween-80 90 % of control | [13] 93 % of control | [4] 92 % of control | [14] 94 % of control and 96 % of control | [6] 92 % of control | [15] 99 % of control

CCCC[S][Pb]([CH2]C)([CH2]C)[CH2]C
inactive: dose: 1.56 mg/kg/injection, schedule: Q01DX009 (sc), vehicle: olive oil, sesame oil, peanut oil 103 % of control | dose: 3.12 mg/kg/injection, schedule: Q01DX009 (sc), vehicle: olive oil, sesame oil, peanut oil 99 % of control | dose: 6.25 mg/kg/injection, schedule: Q01DX009 (sc), vehicle: olive oil, sesame oil, peanut oil 96 % of control and 100 % of control | [16] 111 % of control | [17] 96 % of control

NNc1nncc(=O)[nH]1
inactive: dose: 100.0 mg/kg/injection, schedule: Q01DX001 (ip), vehicle: saline with Tween-80 103 % of control | dose: 200.0 mg/kg/injection, schedule: Q01DX001 (ip), vehicle: saline with Tween-80 103 % of control

CNC(=O)c1cn(C2OC(CO)C(O)C2O)c2ncnc(N)c12 (stereo not given)
inactive: dose: 88.0 mg/kg/injection, schedule: Q01DX001 (ip), vehicle: water 120 % of control | dose: 400.0 mg/kg/injection, schedule: Q01DX001 (ip), vehicle: water 117 % of control

CCCCCCCCN(c1ccc(C(=O)O)cc1)S(=O)(=O)c1ccc(C)cc1
inactive: dose: 75.0 mg/kg/injection, schedule: Q01DX009 (ip), vehicle: Klucel (hydroxypropylcellulose) (HPC) 103 % of control | dose: 150.0 mg/kg/injection, schedule: Q01DX009 (ip), vehicle: Klucel (hydroxypropylcellulose) (HPC) 100 % of control | dose: 300.0 mg/kg/injection, schedule: Q01DX009 (ip), vehicle: Klucel (hydroxypropylcellulose) (HPC) 90 % of control

CC1COCC(C)N1 (stereo not given)
inactive: dose: 25.0 mg/kg/injection, schedule: Q01DX009 (ip), vehicle: saline 101 % of control | dose: 50.0 mg/kg/injection, schedule: Q01DX009 (ip), vehicle: saline 93 % of control | dose: 100.0 mg/kg/injection, schedule: Q01DX009 (ip), vehicle: saline 90 % of control | dose: 200.0 mg/kg/injection, schedule: Q01DX009 (ip), vehicle: saline 90 % of control | dose: 400.0 mg/kg/injection, schedule: Q01DX009 (ip), vehicle: saline 92 % of control

COc1ccc2ccccc2n1
inactive: [18] 94 % of control | [13] 103 % of control | [4] 103 % of control | [19] 102 % of control | [14] 90 % of control | [6] 98 % of control | [20] 105 % of control

O=C1C(=O)N(CN2CCCCC2)c2ccccc21
inactive: [13] 98 % of control | [4] 109 % of control | [14] 113 % of control | [6] 109 % of control | [15] 104 % of control | [8] 108 % of control

O=C(NCCCl)NC1OC(CO)C(O)C(O)C1O (stereo not given)
inactive: [10] 107 % of control | [11] 101 % of control | [12] 96 % of control

CC(C(=O)O)C(NC(=O)c1ccccc1)C(=O)O (stereo not given)
inactive: [18] 93 % of control | [19] 100 % of control | [20] 92 % of control

CCP1CCC(=NNC(N)=S)CC1 (stereo not given)
inactive: [16] 95 % of control | [17] 95 % of control | dose: 50.0 mg/kg/injection, schedule: Q04DX002 (ip), vehicle: saline with Tween-80 93 % of control

COc1ccc(C2(C)C(C#N)C(=O)NC(=O)C2C#N)cc1 (stereo not given)
inactive: [10] 98 % of control | [11] 122 % of control | [12] 104 % of control

Cc1ccc(Nc2nc(N)nc(CNc3ccc(Cl)cc3)n2)cc1
inactive: [4] 89 % of control | [6] 97 % of control | [8] 89 % of control

CC(=O)/C(C)=N\NC(=O)c1ccccn1
inactive: dose: 25.0 mg/kg/injection, schedule: Q01DX015 (ip), vehicle: water 119 % of control | dose: 50.0 mg/kg/injection, schedule: Q01DX001 (ip), vehicle: water 108 % of control | dose: 50.0 mg/kg/injection, schedule: Q01DX015 (ip), vehicle: water 108 % of control | dose: 100.0 mg/kg/injection, schedule: Q01DX001 (ip), vehicle: water 121 % of control | dose: 100.0 mg/kg/injection, schedule: Q01DX015 (ip), vehicle: water 119 % of control | dose: 200.0 mg/kg/injection, schedule: Q01DX001 (ip), vehicle: water 108 % of control

CC(CN(C)N=O)C1CCC2C3CC=C4CC(O)CCC4(C)C3CCC12C (stereo not given)
inactive: dose: 100.0 mg/kg/injection, schedule: Q01DX001 (sc), vehicle: steriod suspending solution 96 % of control | dose: 200.0 mg/kg/injection, schedule: Q01DX001 (sc), vehicle: steriod suspending solution 96 % of control | dose: 400.0 mg/kg/injection, schedule: Q01DX001 (sc), vehicle: steriod suspending solution 100 % of control
